Test results: US12011444B2, “N-substituted indole derivatives as PGE2 receptor modulators” (Idorsia Pharmaceuticals Ltd, priority 2015, dated 2024)

Assays:
PTRGER4 (EP4) = PTRGER4 (EP4) (Homo sapiens (Human), UniProt P35408); assay: hEP4 b-arrestin assay (PathHunter HEK 293 PTGER4 b-arrestin cells); assay type: cell-based
Method in brief: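 Antagonist mode: compound is given 15 min at 37 °C, then 20 nM (final) PGE2 for 120 min, in HEK293 cells stably expressing EP4 fused to ProLink and β-arrestin 2 fused to EA. Recruitment read as β-gal luminescence after 1 h reagent at room temperature, as percent of DMSO control.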

PTGER2 (EP2) = PTGER2 (EP2) (Homo sapiens (Human), UniProt P43116); assay: hEP2 b-arrestin assay (PathHunter HEK 293 PTGER2 b-arrestin cells); assay type: cell-based
Sequence of PTGER2 (EP2) (P43116 whole entry): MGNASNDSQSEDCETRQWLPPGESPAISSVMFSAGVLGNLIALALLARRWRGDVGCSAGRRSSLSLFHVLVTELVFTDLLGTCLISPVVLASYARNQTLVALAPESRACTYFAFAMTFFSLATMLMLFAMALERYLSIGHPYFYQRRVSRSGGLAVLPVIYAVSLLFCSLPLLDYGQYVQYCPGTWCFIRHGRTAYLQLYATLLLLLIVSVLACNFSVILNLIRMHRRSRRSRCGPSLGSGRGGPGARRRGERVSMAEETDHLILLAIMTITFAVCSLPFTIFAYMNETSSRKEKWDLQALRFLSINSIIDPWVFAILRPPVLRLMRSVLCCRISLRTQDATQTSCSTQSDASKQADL
Method in brief: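 Readout is β-galactosidase complementation luminescence, expressed as percent of DMSO control (duplicates). PathHunter HEK293 EP2/β-arrestin 2 cells, grown 24 h, received compound for 15 min at 37 °C before a 120 min challenge with PGE2 at 5 μM final, followed by 1 h detection at room temperature.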

[1] = antagonistic activity on hEP4, mean where measured multiple times
[2] = antagonistic activity on hEP2, mean where measured multiple times
[3] = hEP4 b-arrestin assay (values without asterisk)
[4] = hEP2 b-arrestin assay (values without asterisk)

Sequence of PTRGER4 (EP4) (P35408 whole entry, looked up, the tested form may be a part): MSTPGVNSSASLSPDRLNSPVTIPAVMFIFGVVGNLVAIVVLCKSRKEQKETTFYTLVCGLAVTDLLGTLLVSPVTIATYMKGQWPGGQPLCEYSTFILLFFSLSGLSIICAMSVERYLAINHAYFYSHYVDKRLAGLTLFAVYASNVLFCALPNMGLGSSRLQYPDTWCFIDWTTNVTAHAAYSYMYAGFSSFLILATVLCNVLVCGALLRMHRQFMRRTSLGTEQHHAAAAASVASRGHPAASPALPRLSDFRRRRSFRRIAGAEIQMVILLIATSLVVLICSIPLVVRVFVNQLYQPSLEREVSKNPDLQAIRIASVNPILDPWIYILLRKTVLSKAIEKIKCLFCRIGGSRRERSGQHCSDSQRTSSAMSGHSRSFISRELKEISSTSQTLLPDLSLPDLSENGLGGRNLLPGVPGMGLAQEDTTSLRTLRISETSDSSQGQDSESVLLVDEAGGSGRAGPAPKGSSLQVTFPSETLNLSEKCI

IC50 (PTRGER4 (EP4); [1]) [nM]	IC50 (PTGER2 (EP2); [2]) [nM]	IC50 (PTRGER4 (EP4); [3]) [nM]	IC50 (PTGER2 (EP2); [4]) [nM]	SMILES
322	33			COc1ccc(F)c2c1cc(C)n2CCNc1cc(-c2ccc(-c3noc(C)n3)cc2)ncn1 [compound 303, [2-(7-Fluoro-4-methoxy-2-methyl-indol-1-yl)-ethyl]-{6-[4-(5-methyl-[1,2,4]oxadiazol-3-yl)-phenyl]-pyrimidin-4-yl}-amine]
397	52			COc1ccc(Cl)c2c1cc(C)n2CCNc1cc(-c2cc(Cl)c(C(=O)O)c(Cl)c2)ncn1 [compound 292]
697	51			CCOc1cc(-c2cc(NCCn3c(C)cc4c(OC)ccc(F)c43)ncn2)ccc1S(N)(=O)=O [compound 377]
301	26			Cc1cc(Cl)cc2c1cc(C)n2CCNc1cc(-c2ccc(C(=O)O)c(OC(F)F)c2)ncn1 [compound 349, 4-{6-[2-(6-Chloro-2,4-dimethyl-indol-1-yl)-ethylamino]-pyrimidin-4-yl}-2-difluoromethoxy-benzoic acid]
110	7			COc1ccc(F)c2c1cc(C)n2CCNc1cc(-c2ccc(-c3noc(=O)[nH]3)cc2)ncn1 [compound 313, 3-(4-{6-[2-(7-Fluoro-4-methoxy-2-methyl-indol-1-yl)-ethylamino]-pyrimidin-4-yl}-phenyl)-4H-[1,2,4]oxadiazol-5-one]
48	5			CNc1cc(-c2cc(NCCn3c(C)cc4c(C)ccc(F)c43)ncn2)ccc1C(=O)O [compound 136, 4-{6-[2-(7-Fluoro-2,4-dimethyl-indol-1-yl)-ethylamino]-pyrimidin-4-yl}-2-methylamino-benzoic acid]
660	57			CNc1cc(-c2cc(NCCn3c(C)cc4c(F)ccc(OC)c43)ncn2)ccc1C(=O)O [compound 252]
381	25			CSc1cc(-c2cc(NCCn3c(C)cc4c(C)ccc(Cl)c43)ncn2)ccc1C(=O)O [compound 217]
557	20			COc1cccc2c1cc(C)n2CCNc1cc(-c2ccc(-n3cccn3)cc2)ncn1 [compound 78, [2-(4-Methoxy-2-methyl-indol-1-yl)-ethyl]-[6-(4-pyrazol-1-yl-phenyl)-pyrimidin-4-yl]-amine]
507	2			CCNc1cc(-c2cc(NCCn3c(C)cc4c(F)ccc(C)c43)ncn2)ccc1C(=O)O [compound 246]
417	16			CCOc1cc(-c2cc(NCCn3c(C)cc4c(C)cccc43)ncn2)ccc1C(=O)O [compound 128, 4-{6-[2-(2,4-Dimethyl-indol-1-yl)-ethylamino]-pyrimidin-4-yl}-2-ethoxy-benzoic acid]
933	612			CCc1cc(-c2cc(NCCn3c(C)cc4c(CC)cccc43)ncn2)ccc1C(=O)O [compound 118, 2-Ethyl-4-{6-[2-(4-ethyl-2-methyl-indol-1-yl)-ethylamino]-pyrimidin-4-yl}-benzoic acid]
199	46			Cc1ccc(F)c2c1cc(C)n2CCNc1cc(-c2ccc(C(=O)O)c(CC(C)C)c2)ncn1 [compound 336, 4-{6-[2-(7-Fluoro-2,4-dimethyl-indol-1-yl)-ethylamino]-pyrimidin-4-yl}-2-isobutyl-benzoic acid]

The remaining lines, values behind:

SMILES	IC50 (PTRGER4 (EP4); [1]) [nM]	IC50 (PTGER2 (EP2); [2]) [nM]	IC50 (PTRGER4 (EP4); [3]) [nM]	IC50 (PTGER2 (EP2); [4]) [nM]
Cc1ccc(F)c2c1cc(C)n2CCNc1cc(-c2ccc3c(c2)CC(=O)N3)ncn1 [compound 64, 5-{6-[2-(7-Fluoro-2,4-dimethyl-indol-1-yl)-ethylamino]-pyrimidin-4-yl}-1,3-dihydro-indol-2-one]	231	47		
COc1ccc(F)c2c1cc(C#N)n2CCNc1cc(-c2ccc(OCC(=O)O)c(OC(F)(F)F)c2)ncn1 [Example 828, (4-{6-[2-(2-Cyano-7-fluoro-4-methoxy-indol-1-yl)-ethylamino]-pyrimidin-4-yl}-2-trifluoromethoxy-phenoxy)-acetic acid]			11	10
Cc1ccc(F)c2c1cc(C)n2CCNc1cc(-c2cc(F)c(C(=O)O)s2)ncn1 [compound 47]	136	18		
COc1cccc2c1cc(C)n2CCNc1cc(-c2cc(F)c(C(=O)O)s2)ncn1 [compound 49]	235	4		
COc1ccc(F)c2c1cc(C)n2CCNc1cc(-c2ccc(C(=O)O)c(OCC(F)(F)F)c2)ncn1 [Example 844, 4-{6-[2-(7-Fluoro-4-methoxy-2-methyl-indol-1-yl)-ethylamino]-pyrimidin-4-yl}-2-(2,2,2-trifluoro-ethoxy)-benzoic acid]			142	5
CCCc1cc(-c2cc(NCCn3c(C#N)cc4c(OC)ccc(F)c43)ncn2)cc(F)c1C(=O)O [Example 939, 4-{6-[2-(2-Cyano-7-fluoro-4-methoxy-indol-1-yl)-ethylamino]-pyrimidin-4-yl}-2-fluoro-6-propyl-benzoic acid]			17	15
CCOc1cc(-c2cc(NCCn3c(C)cc4c(OC)cc(Cl)c(F)c43)ncn2)sc1C(=O)O [Example 864, 5-{6-[2-(6-Chloro-7-fluoro-4-methoxy-2-methyl-indol-1-yl)-ethylamino]-pyrimidin-4-yl}-3-ethoxy-thiophene-2-carboxylic acid]			5	3
CCc1cc(-c2cc(NCCn3c(C#N)cc4c(OC)ccc(F)c43)ncn2)ccc1O [Example 822, 1-{2-[6-(3-Ethyl-4-hydroxy-phenyl)-pyrimidin-4-ylamino]-ethyl}-7-fluoro-4-methoxy-1H-indole-2-carbonitrile]			5	6
Cc1cc(F)cc2c1cc(C)n2CCNc1cc(-c2ccc(-c3c[nH]cn3)cc2)ncn1 [compound 69, [2-(6-Fluoro-2,4-dimethyl-indol-1-yl)-ethyl]-{6-[4-(1H-imidazol-4-yl)-phenyl]-pyrimidin-4-yl}-amine]	94	29		
CCOc1cc(-c2cc(NCCn3c(C)cc4c(OC)ccc(F)c43)ncn2)sc1C(=O)O [Example 258, 3-Ethoxy-5-{6-[2-(7-fluoro-4-methoxy-2-methyl-indol-1-yl)-ethylamino]-pyrimidin-4-yl}-thiophene-2-carboxylic acid]	10	1		
CCOc1cc(-c2cc(NCCn3c(C)cc4c(C)ccc(F)c43)ncn2)ccc1NCC(=O)O [Example 877, (2-Ethoxy-4-{6-[2-(7-fluoro-2,4-dimethyl-indol-1-yl)-ethylamino]-pyrimidin-4-yl}-phenylamino)-acetic acid]			34	5
COc1ccc(F)c2c1cc(C#N)n2CCNc1cc(-c2cccc3[nH]ccc23)ncn1 [Example 969, 7-Fluoro-1-{2-[6-(1H-indol-4-yl)-pyrimidin-4-ylamino]-ethyl)-4-methoxy-1H-indole-2-carbonitrile]			25	56
CCOc1cc(-c2cc(NCCn3c(C#N)cc4c(OC)ccc(F)c43)ncn2)ccc1-c1cnn[nH]1 [Example 930, 1-(2-{6-[3-Ethoxy-4-(3H-[1,2,3]triazol-4-yl)-phenyl]-pyrimidin-4-ylamino}-ethyl)-7-fluoro-4-methoxy-1H-indole-2-carbonitrile]			2	4
COc1ccc(F)c2c1cc(C#N)n2CCNc1cc(-c2ccc(CNS(C)(=O)=O)cc2)ncn1 [Example 983, N-(4-{6-[2-(2-Cyano-7-fluoro-4-methoxy-indol-1-yl)-ethylamino]-pyrimidin-4-yl}-benzyl)-methanesulfonamide]			244	248
COc1ccc(F)c2c1cc(C)n2CCNc1cc(-c2ccc(CO)c(C)c2)ncn1 [compound 32, (4-{6-[2-(7-Fluoro-4-methoxy-2-methyl-indol-1-yl)-ethylamino]-pyrimidin-4-yl}-2-methyl-phenyl)-methanol]	162	26		
CCN(C=O)c1csc(-c2cc(NCCn3c(C)cc4c(OC)ccc(F)c43)ncn2)c1 [Example 1071, N-Ethyl-N-(5-{6-[2-(7-fluoro-4-methoxy-2-methyl-indol-1-yl)-ethylamino]-pyrimidin-4-yl}-thiophen-3-yl)-formamide]			40	23
CCOc1c(C(=O)O)ccc(-c2cc(NCCn3c(C#N)cc4c(OC)ccc(F)c43)ncn2)c1F [Example 928, 4-{6-[2-(2-Cyano-7-fluoro-4-methoxy-indol-1-yl)-ethylamino]-pyrimidin-4-yl}-2-ethoxy-3-fluoro-benzoic acid]			45	37
COc1ccc(F)c2c1cc(C#N)n2CCNc1cc(-c2ccnc(C3CC3)c2)ncn1 [Example 986, 1-{2-[6-(2-Cyclopropyl-pyridin-4-yl)-pyrimidin-4-ylamino]-ethyl}-7-fluoro-4-methoxy-1H-indole-2-carbonitrile]			66	9
CCOc1cc(-c2cc(NCC(C)n3c(C)cc4c(OC)ccc(F)c43)ncn2)sc1C(=O)O (racemic) [Example 796, rac-3-Ethoxy-5-{6-[2-(7-fluoro-4-methoxy-2-methyl-indol-1-yl)-propylamino]-pyrimidin-4-yl}-thiophene-2-carboxylic acid]			131	48
CCOc1cc(-c2cc(NCCn3c(C)cc4c(OC)ccc(F)c43)ncn2)sc1/C=C/C(=O)O [Example 1016, (E)-3-(3-Ethoxy-5-{6-[2-(7-fluoro-4-methoxy-2-methyl-indol-1-yl)-ethylamino]-pyrimidin-4-yl}-thiophen-2-yl)-acrylic acid]			5	5
COc1ccc(F)c2c1cc(C#N)n2CCNc1cc(-c2ccc(C(=O)O)c(OC(F)F)c2)ncn1 [Example 917, 4-{6-[2-(2-Cyano-7-fluoro-4-methoxy-indol-1-yl)-ethylamino]-pyrimidin-4-yl}-2-difluoromethoxy-benzoic acid]			35	24
